In PMC2790922 (Molecular pharmaceutics, 2009):

Experiments:
[1] = target: T1, human recombinant active MMP-2 (Homo sapiens, UniProt P08253); assay: Cleavage of peptides by purified active MMP-2; type: biochemical; conditions: 10 µM GM6001; 9 nM active MMP-2; 37°C, 2 h; FAM fluorescence
T1 sequence (P08253 110-660): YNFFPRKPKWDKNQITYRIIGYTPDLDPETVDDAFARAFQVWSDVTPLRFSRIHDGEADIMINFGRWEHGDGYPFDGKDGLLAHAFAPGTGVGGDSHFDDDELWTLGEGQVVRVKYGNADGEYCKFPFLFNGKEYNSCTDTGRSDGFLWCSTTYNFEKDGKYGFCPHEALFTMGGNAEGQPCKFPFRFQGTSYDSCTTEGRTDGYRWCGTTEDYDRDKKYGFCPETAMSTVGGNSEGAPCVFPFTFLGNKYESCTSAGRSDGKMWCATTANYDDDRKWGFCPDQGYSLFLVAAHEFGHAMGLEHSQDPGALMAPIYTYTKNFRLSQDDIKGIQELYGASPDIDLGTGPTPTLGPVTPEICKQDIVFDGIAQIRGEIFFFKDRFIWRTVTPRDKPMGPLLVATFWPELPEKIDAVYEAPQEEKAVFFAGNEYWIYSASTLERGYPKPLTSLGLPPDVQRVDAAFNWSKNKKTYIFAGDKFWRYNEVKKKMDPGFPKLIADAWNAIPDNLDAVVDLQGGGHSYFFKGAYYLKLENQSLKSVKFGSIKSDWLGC

[2] = test system: MMP-2 from HUVECs; assay: Peptide cleavage by MMP-2 in PMA-treated HUVECs culture; type: cell-based, human; conditions: 25 µM GM6001, 30 min pre-treatment; 10 µM MMP-RGD; 24 h; p = 0.041

inhibition of cleavage of MMP-RGD and MMP-control by purified MMP-2 [1]: inhibited
SMILES: CNC(=O)[C@H](Cc1c[nH]c2ccccc12)NC(=O)[C@@H](CC(=O)NO)CC(C)C [GM6001]
inhibition of cleavage of MMP-RGD by PMA-treated HUVECs [2]: inhibited
